The target of one assay is T1, ICAM-1 (Homo sapiens, UniProt P05362).
T1 construct: Full length cDNAs of the adhesion molecules VCAM-1, ICAM-1 and E-Selectin are transcribed and translated; host or cells: cell-free: coupled TNT reticulocyte lysate (Promega) with dog pancreatic microsomes
Nature of the assay: Cell-free translation/translocation assay, ICAM-1. The format is biochemical. The following applies: reticulocyte lysate with dog pancreatic microsomes. An excerpt: (§1) Proteins are radioactively labelled and visualised by autoradlography.

In assay [1] the test system is VCAMSP(15+4)-SEAP construct. Nature of the assay: SP-SEAP assay, secretion of SEAP into the medium. The format is cell-based. The following applies: transiently transfected cells, increasing concentrations, dose-dependent. As for the experimental part: (§2) Cell Culture and Transient Transfections HEK293 cells are maintained in Dulbeccos' modified Eagle's medium (DMEM, Gibco-BRL), supplemented with 10% heat-inactivated fetal calf serum (FCS, Bio-Whittaker) and 100 Units/ml each of penicillin (BC) and streptomycin (Gibco-BRL) at 37° in a 5% humidified CO2 incubator. HUVEC cells are cultured in endothelial cell basal medium (EBM, Clonetics Corp.) supplemented with 10% FCS, 5×10^−4 M dibutyryl cAMP (Sigma), 1 μg/ml hydrocortisone (Sigma) and 10 ng/ml human EGF (Boehringer) at 37° in a 5% humidified CO2 incubator. VCAM-1 production is stimulated by incubation with 100U/ml TNF-α for ca. 8 hours. For transient transfection, HEK293 cells are seeded into 6-well or 24-well cell culture dishes at a density of 6×10^5 cells/well or 1.5×10^5 cells/well, respectively, the day prior to transfection and grown to 50-70% confluency. Cells are transfected with 2 μg or 1 μg of plasmid DNA, respectively, using the SuperFect reagent (Qiagen) according to the supplier's recommendations. Cells are incubated either without or with addition of a candidate compound, respectively, at concentrations indicated for ca. 24 to 48 hours. […]
(§3) Human placental SEAP levels in cell supernatants are determined using either a fluorescence-based assay or an assay that measures light absorbance at 405 nm accompanying hydrolysis of pNPP according to the method described (Berger et al., 1988). […] 20 μl of 120 mM pNPP in 1x SEAP buffer prewarmed to 37° is added and the change in absorbance at 37° is plotted. […] For determination of SEAP levels by a fluorescence-based assay the Atto Phos AP Fluorescent Substrate Sysem (Promega) is used according to the manufacturer's instructions.
(§4) For the establishment and as a first proof of principle of an assay (system) according to the present invention, SP-reporter gene fusion constructs are generated using the SP of compound sensitive and insensitive proteins, respectively, and the mature sequence of placental SEAP as the reporter gene (see FIG. 5). […] Finally, secretion of the reporter SEAP protein into the medium is determined. […]

In a further assay the test system is VCAMSP-SEAP construct. Briefly: SP-SEAP assay, secretion of SEAP into the medium. The assay is classed as cell-based. The following applies: transiently transfected cells, increasing concentrations. As for the experimental part:
as §2, §3, §4

The test system of assay [2] is E-SelectinSP-SEAP fusion protein. Nature of the assay: SP-SEAP assay, secretion of SEAP into the medium. The assay is classed as cell-based. The following applies: transiently transfected cells, increasing concentrations. As for the experimental part:
as §2, §3, §4

Another assay deals with T2, E-Selectin (Homo sapiens, UniProt P16581).
T2 construct: Full length cDNAs of the adhesion molecules VCAM-1, ICAM-1 and E-Selectin are transcribed and translated; host or cells: cell-free: coupled TNT reticulocyte lysate (Promega) with dog pancreatic microsomes
T2 sequence (P16581 22-610): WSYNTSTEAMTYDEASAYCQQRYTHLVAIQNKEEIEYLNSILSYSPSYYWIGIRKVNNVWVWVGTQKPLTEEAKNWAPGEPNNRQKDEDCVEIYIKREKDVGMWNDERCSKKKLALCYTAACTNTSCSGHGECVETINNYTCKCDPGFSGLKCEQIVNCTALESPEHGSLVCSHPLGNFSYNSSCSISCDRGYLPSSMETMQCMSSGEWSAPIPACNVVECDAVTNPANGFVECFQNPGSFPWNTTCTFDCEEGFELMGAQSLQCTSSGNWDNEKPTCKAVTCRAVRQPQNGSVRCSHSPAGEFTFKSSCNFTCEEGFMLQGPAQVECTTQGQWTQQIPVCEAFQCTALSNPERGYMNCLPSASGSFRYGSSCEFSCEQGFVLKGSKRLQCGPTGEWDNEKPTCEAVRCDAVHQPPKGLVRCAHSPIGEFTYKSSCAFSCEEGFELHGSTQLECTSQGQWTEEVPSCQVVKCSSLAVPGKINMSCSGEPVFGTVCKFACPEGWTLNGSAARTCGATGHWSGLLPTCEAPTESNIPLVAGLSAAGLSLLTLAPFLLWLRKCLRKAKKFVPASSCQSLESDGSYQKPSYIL
Briefly: Cell-free translation/translocation assay, E-Selectin. The assay is classed as biochemical. The following applies: reticulocyte lysate with dog pancreatic microsomes, at the concentrations tested.
Description: as §1

T1 sequence (P05362 28-532): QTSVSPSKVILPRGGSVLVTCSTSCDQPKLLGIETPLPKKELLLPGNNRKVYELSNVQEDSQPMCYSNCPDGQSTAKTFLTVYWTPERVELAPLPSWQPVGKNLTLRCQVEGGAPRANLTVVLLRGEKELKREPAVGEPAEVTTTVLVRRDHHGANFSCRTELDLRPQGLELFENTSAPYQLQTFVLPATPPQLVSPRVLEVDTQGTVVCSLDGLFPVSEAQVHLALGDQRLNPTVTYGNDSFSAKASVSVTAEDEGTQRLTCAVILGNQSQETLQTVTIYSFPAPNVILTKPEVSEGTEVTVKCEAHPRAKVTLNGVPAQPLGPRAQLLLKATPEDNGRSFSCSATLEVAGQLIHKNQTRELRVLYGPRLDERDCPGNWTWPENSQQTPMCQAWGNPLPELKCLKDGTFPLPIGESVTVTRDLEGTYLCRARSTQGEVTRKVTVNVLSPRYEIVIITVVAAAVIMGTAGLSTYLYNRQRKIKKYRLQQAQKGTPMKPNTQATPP

In the case of `CCCCC(C)CC1NC(=O)C(Cc2cn(OC)c3ccccc23)N(C)C(=O)C(CC(C)C)NC(=O)C(CC(C)C)N(C)C(=O)C(CC(C)CCCC)NC(=O)C(CCC(=O)OCCC)OC(=O)C(C)N(C)C1=O` (centres unmarked) [CP], the “concentration needed to inhibit translocation of ICAM-1, relative to VCAM-1” value on ICAM-1 was in the range of 20 to 30 times. Moreover, the “sensitivity of SEAP secretion to the compound” value is “full sensitivity” in assay [1], “slight sensitivity” in the assay on VCAMSP-SEAP construct and “compound-insensitive” in assay [2]. In addition, at E-Selectin, the “translocation of E-Selectin” value is recorded as “resistant”.

For the origin of these results see patent US20040086904A1, “Screening assay for cotranslational translocation interfering compounds” (priority 2001, published 2004).
